Experimental data from PubChem BioAssay AID192 (DTP/NCI, 2004).
Values joined by “and” are separate entries in the source; they are usually repeats but may differ in a detail not shown here. Equal entries are not always repeated. Toxic doses and inconclusive results are not listed. The calls were made as follows: active = survival T/C of 150% or more; inactive = T/C below 125% in these data.

System: BDF1 mice, B16 melanoma ip, median survival T/C
Experiment: NCI In Vivo Anticancer Drug Screen. Data for tumor model B16 Melanoma (intraperitoneal) in B6D2F1 (BDF1) mice
Settings: endpoint: median survival time, higher = longer survival
Procedure: The antitumor activity of compounds was measured in mice bearing transplantable tumors. Survival or tumor size were measured and the results are expressed as the measurement made in the treated group (T) divided by the measurement made in the vehicle treated control group (C). The tumor model used in this assay is B16 Melanoma (intraperitoneal) in B6D2F1 (BDF1) mice

[1] = dose: 50.0 mg/kg/injection, schedule: Q01DX009 (ip), vehicle: saline with Tween-80
[2] = dose: 100.0 mg/kg/injection, schedule: Q01DX009 (ip), vehicle: saline with Tween-80
[3] = dose: 200.0 mg/kg/injection, schedule: Q01DX009 (ip), vehicle: saline with Tween-80
[4] = dose: 2.5 mg/kg/injection, schedule: Q01DX009 (ip), vehicle: saline with Tween-80
[5] = dose: 25.0 mg/kg/injection, schedule: Q01DX009 (ip), vehicle: saline
[6] = dose: 100.0 mg/kg/injection, schedule: Q01DX009 (ip), vehicle: saline
[7] = dose: 200.0 mg/kg/injection, schedule: Q01DX009 (ip), vehicle: saline
[8] = dose: 25.0 mg/kg/injection, schedule: Q01DX009 (ip), vehicle: saline with Tween-80

Measured: T/C

CN1C(=O)NC(c2ccc(Cl)cc2)(c2ccc(Cl)cc2)C1=O
inactive: dose: 0.78 mg/kg/injection, schedule: Q01DX009 (ip), vehicle: water 100 % of control | dose: 1.56 mg/kg/injection, schedule: Q01DX009 (ip), vehicle: water 95 % of control | dose: 3.12 mg/kg/injection, schedule: Q01DX009 (ip), vehicle: water 100 % of control | dose: 6.25 mg/kg/injection, schedule: Q01DX009 (ip), vehicle: water 100 % of control and 112 % of control | dose: 12.5 mg/kg/injection, schedule: Q01DX009 (ip), vehicle: distilled water + Tween-80 100 % of control | dose: 12.5 mg/kg/injection, schedule: Q01DX009 (ip), vehicle: water 99 % of control and 102 % of control | dose: 25.0 mg/kg/injection, schedule: Q01DX009 (ip), vehicle: distilled water + Tween-80 105 % of control | dose: 25.0 mg/kg/injection, schedule: Q01DX009 (ip), vehicle: water 101 % of control and 105 % of control | dose: 50.0 mg/kg/injection, schedule: Q01DX009 (ip), vehicle: distilled water + Tween-80 99 % of control | dose: 100.0 mg/kg/injection, schedule: Q01DX009 (ip), vehicle: distilled water + Tween-80 116 % of control | dose: 200.0 mg/kg/injection, schedule: Q01DX009 (ip), vehicle: distilled water + Tween-80 98 % of control

CCOC(=O)C(C)(C)Oc1ccc(Cl)cc1
inactive: [1] 97 % of control and 113 % of control | [2] 88 % of control and 113 % of control | [3] 102 % of control

CC[n+]1ccc(Nc2ccc(NC(=O)c3ccc(Nc4cc[n+](CC)c5ccc(N)cc45)cc3)cc2)cc1
inactive: dose: 0.5 mg/kg/injection, schedule: Q01DX009 (ip), vehicle: saline 95 % of control | dose: 0.5 mg/kg/injection, schedule: Q01DX009 (ip), vehicle: water 96 % of control | dose: 1.0 mg/kg/injection, schedule: Q01DX009 (ip), vehicle: saline 102 % of control | dose: 1.0 mg/kg/injection, schedule: Q01DX009 (ip), vehicle: water 113 % of control | dose: 2.0 mg/kg/injection, schedule: Q01DX009 (ip), vehicle: saline 100 % of control | dose: 2.0 mg/kg/injection, schedule: Q01DX009 (ip), vehicle: water 116 % of control | dose: 4.0 mg/kg/injection, schedule: Q01DX009 (ip), vehicle: saline 111 % of control | dose: 4.0 mg/kg/injection, schedule: Q01DX009 (ip), vehicle: water 106 % of control | dose: 8.0 mg/kg/injection, schedule: Q01DX009 (ip), vehicle: saline 114 % of control

CCN1/C(=C/C=C/C=C/c2sc3ccccc3[n+]2CC)Sc2ccccc21
inactive: dose: 0.01 mg/kg/injection, schedule: Q01DX009 (ip), vehicle: saline 100 % of control | dose: 0.02 mg/kg/injection, schedule: Q01DX009 (ip), vehicle: saline 98 % of control | dose: 0.05 mg/kg/injection, schedule: Q01DX009 (ip), vehicle: saline 93 % of control | dose: 0.1 mg/kg/injection, schedule: Q01DX009 (ip), vehicle: saline 98 % of control | dose: 0.2 mg/kg/injection, schedule: Q01DX009 (ip), vehicle: saline 100 % of control

O=C1N[C@@H]2C(=C[C@H](O)[C@@H](O)[C@H]2O)c2cc3c(c(O)c21)OCO3
inactive: [4] 111 % of control

COc1ccc(NC(=O)Nc2c(C)cc(C)cc2C)cc1
inactive: dose: 100.0 mg/kg/injection, schedule: Q01DX009 (ip), vehicle: gum acacia 96 % of control | dose: 200.0 mg/kg/injection, schedule: Q01DX009 (ip), vehicle: gum acacia 90 % of control | dose: 400.0 mg/kg/injection, schedule: Q01DX009 (ip), vehicle: gum acacia 101 % of control

CN(Cc1cnc2nc(N)nc(N)c2n1)c1c(Cl)cc(C(=O)NC(CCC(=O)O)C(=O)O)cc1Br (stereo unspecified)
inactive: dose: 25.0 mg/kg/injection, schedule: Q01DX011 (ip), vehicle: saline 101 % of control | dose: 50.0 mg/kg/injection, schedule: Q01DX011 (ip), vehicle: saline 105 % of control

Clc1nc2ccccc2nc1CI
inactive: dose: 0.04 mg/kg/injection, schedule: Q01DX009 (ip), vehicle: saline with Tween-80 97 % of control | dose: 0.08 mg/kg/injection, schedule: Q01DX009 (ip), vehicle: saline with Tween-80 97 % of control | dose: 0.15 mg/kg/injection, schedule: Q01DX009 (ip), vehicle: saline with Tween-80 97 % of control | dose: 0.3 mg/kg/injection, schedule: Q01DX009 (ip), vehicle: saline with Tween-80 92 % of control | dose: 0.31 mg/kg/injection, schedule: Q01DX009 (ip), vehicle: saline with Tween-80 94 % of control | dose: 0.62 mg/kg/injection, schedule: Q01DX009 (ip), vehicle: saline with Tween-80 91 % of control | dose: 1.25 mg/kg/injection, schedule: Q01DX009 (ip), vehicle: saline with Tween-80 100 % of control | [4] 97 % of control | dose: 5.0 mg/kg/injection, schedule: Q01DX009 (ip), vehicle: saline with Tween-80 88 % of control

OCC1(CO)COC2(CCCCC2)N1
inactive: dose: 12.5 mg/kg/injection, schedule: Q01DX009 (ip), vehicle: saline 110 % of control | [5] 116 % of control | dose: 50.0 mg/kg/injection, schedule: Q01DX009 (ip), vehicle: saline 109 % of control | [6] 103 % of control | [7] 112 % of control | dose: 400.0 mg/kg/injection, schedule: Q01DX009 (ip), vehicle: saline 108 % of control

CCOC(=O)C(=O)CC(=O)/C=C/c1ccccc1
inactive: [1] 94 % of control | [2] 97 % of control | [3] 97 % of control

C=C1C(=O)OC2CC1C(OC(=O)/C=C/c1ccccc1)C/C(C)=C/CC/C(C)=C/CCC2(C)O (stereo unspecified)
inactive: dose: 12.5 mg/kg/injection, schedule: Q01DX009 (ip), vehicle: Klucel (hydroxypropylcellulose) (HPC) 105 % of control | dose: 25.0 mg/kg/injection, schedule: Q01DX009 (ip), vehicle: Klucel (hydroxypropylcellulose) (HPC) 92 % of control | dose: 50.0 mg/kg/injection, schedule: Q01DX009 (ip), vehicle: Klucel (hydroxypropylcellulose) (HPC) 101 % of control

COc1cc(/C=C/C(N)=O)cc(OC)c1OC
inactive: [5] 107 % of control | [6] 94 % of control | [7] 102 % of control

C/C(=C\c1ccccc1)[N+](=O)[O-]
inactive: [8] 111 % of control | dose: 25.0 mg/kg/injection, schedule: Q04DX003 (ip), vehicle: saline with Tween-80 110 % of control | [1] 105 % of control | dose: 50.0 mg/kg/injection, schedule: Q04DX003 (ip), vehicle: saline with Tween-80 110 % of control

Nc1ccc2c(c1)CN1C(=O)c3ccccc3C1=N2
inactive: dose: 12.5 mg/kg/injection, schedule: Q01DX009 (ip), vehicle: saline with Tween-80 101 % of control | [8] 103 % of control | [1] 111 % of control

CC(=O)ON(C(C)=O)c1ccc(C(N)=O)cc1
inactive: [8] 91 % of control | [1] 89 % of control | [2] 86 % of control | [3] 88 % of control | dose: 400.0 mg/kg/injection, schedule: Q01DX009 (ip), vehicle: saline with Tween-80 94 % of control

Cc1cc2c(C(C)C)c(O)c(O)c(C=O)c2c(O)c1-c1c(C)cc2c(C(C)C)c(O)c(O)c(C=O)c2c1O
inactive: dose: 0.25 mg/kg/injection, schedule: Q01DX009 (ip), vehicle: Klucel (hydroxypropylcellulose) (HPC) 93 % of control | dose: 0.5 mg/kg/injection, schedule: Q01DX009 (ip), vehicle: Klucel (hydroxypropylcellulose) (HPC) 91 % of control | dose: 1.0 mg/kg/injection, schedule: Q01DX009 (ip), vehicle: Klucel (hydroxypropylcellulose) (HPC) 96 % of control | dose: 2.0 mg/kg/injection, schedule: Q01DX009 (ip), vehicle: Klucel (hydroxypropylcellulose) (HPC) 104 % of control | dose: 4.0 mg/kg/injection, schedule: Q01DX009 (ip), vehicle: Klucel (hydroxypropylcellulose) (HPC) 91 % of control | dose: 8.0 mg/kg/injection, schedule: Q01DX009 (ip), vehicle: Klucel (hydroxypropylcellulose) (HPC) 91 % of control
